Measurements published in ChEMBL document CHEMBL5385907, “Proline-Hinged α-Helical Peptides Sensitize Gram-Positive Antibiotics, Expanding Their Physicochemical Properties to Be Used as Gram-Negative Antibiotics” (J Med Chem, 2024).
Activity calls are given as the source filed them. The rule behind the calls is not given here.

Experiments:
Acinetobacter baumannii [1] = experiment: Potentiation of fusidic acid induced antibacterial activity against Acinetobacter baumannii ATCC 17978 assessed as decrease in bacterial growth at 0.4 uM incubated for 18 hrs in presence of fusidic acid by two fold serial dilution assay; assay type: functional, organism-based
Klebsiella pneumoniae [2] = experiment: Potentiation of erythromycin induced antibacterial activity against Klebsiella pneumoniae ATCC 700603 assessed as decrease in bacterial growth at 0.4 uM incubated for 18 hrs in presence of erythromycin by two fold serial dilution assay; assay type: functional, organism-based
[3] = Hydrophobicity of the compound assessed as retention time by reversed-phase HPLC analysis; assay type: physicochemical
Klebsiella pneumoniae [4] = experiment: Potentiation of fusidic acid induced antibacterial activity against Klebsiella pneumoniae ATCC 700603 assessed as decrease in bacterial growth at 0.4 uM incubated for 18 hrs in presence of fusidic acid by two fold serial dilution assay; assay type: functional, organism-based
Klebsiella pneumoniae [5] = experiment: Potentiation of novobiocin induced antibacterial activity against Klebsiella pneumoniae ATCC 700603 assessed as decrease in bacterial growth at 0.4 uM incubated for 18 hrs in presence of novobiocin by two fold serial dilution assay; assay type: functional, organism-based
Acinetobacter baumannii [6] = experiment: Antibacterial activity against Acinetobacter baumannii ATCC 17978 assessed as inhibition of bacterial growth incubated for 18 hrs by two fold serial dilution assay; assay type: functional
Escherichia coli [7] = experiment: Antibacterial activity against Escherichia coli ATCC 25922 assessed as inhibition of bacterial growth incubated for 18 hrs by two fold serial dilution assay; assay type: functional
Klebsiella pneumoniae [8] = experiment: Antibacterial activity against Klebsiella pneumoniae ATCC 700603 assessed as inhibition of bacterial growth incubated for 18 hrs by two fold serial dilution assay; assay type: functional
Escherichia coli [9] = experiment: Potentiation of erythromycin induced antibacterial activity against Escherichia coli ATCC 25922 assessed as decrease in bacterial growth at 0.4 uM incubated for 18 hrs in presence of erythromycin by two fold serial dilution assay; assay type: functional, organism-based
Escherichia coli [10] = experiment: Potentiation of novobiocin induced antibacterial activity against Escherichia coli ATCC 25922 assessed as decrease in bacterial growth at 0.4 uM incubated for 18 hrs in presence of novobiocin by two fold serial dilution assay; assay type: functional, organism-based
Acinetobacter baumannii [11] = experiment: Potentiation of novobiocin induced antibacterial activity against Acinetobacter baumannii ATCC 17978 assessed as decrease in bacterial growth at 0.4 uM incubated for 18 hrs in presence of novobiocin by two fold serial dilution assay; assay type: functional, organism-based
Acinetobacter baumannii [12] = experiment: Potentiation of erythromycin induced antibacterial activity against Acinetobacter baumannii ATCC 17978 assessed as decrease in bacterial growth at 0.4 uM incubated for 18 hrs in presence of erythromycin by two fold serial dilution assay; assay type: functional, organism-based
[13] = Hemolytic activity in human blood assessed as hemolysis incubated for 6 hrs by microplate reader analysis; assay type: toxicity, tissue-based
Escherichia coli [14] = experiment: Potentiation of fusidic acid induced antibacterial activity against Escherichia coli ATCC 25922 assessed as decrease in bacterial growth at 0.4 uM incubated for 18 hrs in presence of fusidic acid by two fold serial dilution assay; assay type: functional, organism-based

Substance	Activity (Acinetobacter baumannii [1])	Activity (Klebsiella pneumoniae [2])	Retention_time [3]	Activity (Klebsiella pneumoniae [4])	Activity (Klebsiella pneumoniae [5])	MIC (Acinetobacter baumannii [6])	MIC (Escherichia coli [7])	MIC (Klebsiella pneumoniae [8])	Activity (Escherichia coli [9])	Activity (Escherichia coli [10])	Activity (Acinetobacter baumannii [11])	Activity (Acinetobacter baumannii [12])	MHC10 [13]	Activity (Escherichia coli [14])
Ac-KKLLKLLKKPAKLLK-NH2	Active	Active	17.1 min	Active	Active	80 µM	> 80 µM	> 80 µM	Active	Active	Active	Active	> 160 µM	Active
Ac-KKLLKLLKKPLALLK-NH2	Active	Active	19.6 min	Active	Active	20 µM	> 80 µM	> 80 µM	Active	Active	Active	Active	> 160 µM	Active
Ac-KKLLKLLKKPLKALK-NH2	Active	Active	17.5 min	Active	Active	40 µM	> 80 µM	> 80 µM	Active	Active	Active	Active	> 160 µM	Active
Ac-KKLLKLLKKPLKLAK-NH2	Active	Active	17.1 min	Active	Active	80 µM	> 80 µM	> 80 µM	Active	Active	Active	Active	> 160 µM	Active
Ac-KLLKLLKKPLKL-NH2			18 min			> 80 µM	> 80 µM	> 80 µM					> 160 µM	
Ac-KLLKLLKKPLKLL-NH2			19.4 min			20 µM	> 80 µM	> 80 µM					> 160 µM	
Ac-KLLKLLKKPLKLLKK-NH2			18.2 min			20 µM	> 80 µM	> 80 µM					> 160 µM	
Ac-KLLKLLKKPLKLLKKL-NH2			19.7 min			5 µM	> 80 µM	40 µM					> 160 µM	
Ac-LKKLLKLLKKPLKLLK-NH2			20.1 min			1.3 µM	> 10 µM	2.5 µM					53 µM	
Ac-LKLLKKPLKLLK-NH2			18 min			> 80 µM	> 80 µM	> 80 µM					> 160 µM	
Ac-LLKLLKKPLKLLK-NH2			19.8 min			> 80 µM	> 80 µM	> 80 µM					> 160 µM	
